EP1984353B1, “AURORA KINASE MODULATORS AND METHOD OF USE” (Amgen, Inc, priority 2006, dated 2007)
Read-outs that look alike come from different tables or passages of the source.

How the values were obtained:
AuroraA-TPX2 = target: T1, AuroraA-TPX2 (Homo sapiens, UniProt O14965); assay: AuroraA-TPX2 Homogeneous Time Resolved Fluorescent (HTRF) kinase assay; format: biochemical; conditions: average, read-out: AurA/TP X2_ IC50_IP (Avg)
T1 construct: 20 µL of AuroraA-TPX2 KD GST; GST
T1 sequence (O14965 133-383 limits assumed): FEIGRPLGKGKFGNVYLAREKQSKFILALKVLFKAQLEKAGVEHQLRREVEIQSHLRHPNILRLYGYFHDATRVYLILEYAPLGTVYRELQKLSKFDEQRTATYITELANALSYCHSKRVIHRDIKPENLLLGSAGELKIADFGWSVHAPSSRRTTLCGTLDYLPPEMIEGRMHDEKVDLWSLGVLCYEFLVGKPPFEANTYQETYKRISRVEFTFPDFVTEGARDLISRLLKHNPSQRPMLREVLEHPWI
T1 sequence (Q9ULW0 1-43 partner limits assumed): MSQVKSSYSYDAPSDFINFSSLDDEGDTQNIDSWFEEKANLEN
In short: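 Aurora-A/TPX2 phosphorylates biotinylated PLK peptide (about 1 µM) with ATP for about 120 min in 60 mM HEPES pH 7.5, 10 mM MgCl2, 2 mM DTT. EDTA quench, overnight equilibration with Eu-anti-phosphoPLK antibody and SA-APC; HTRF read at 615/655 nm after 320 nm excitation.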

[1] = tested on: phosphorylation of Histone H3; assay: HeLa cell 1-hour phospho-histone assay; format: cell-based; conditions: Homo sapiens, HeLa, 1 h, HeLa cells, 1 hour, average, read-out: pHH3 EC50_IP (Avg)
Experimental: HeLa cell 1-hour phospho-histone assay
The purpose of this assay is to test the inhibitory effect of Aurora compounds with respect to phosphorylation of Histone H3 in the cellular context. HeLa cells (9x10^4/well) are plated in black 96-well flat-bottom tissue culture plates and incubated for 40 hours prior to compound addition. Compounds are serially diluted in DMSO, followed by dilution into MEM containing […] HEPES; 10ul/well of diluted compounds are added to cells (0.5% DMSO final). Cells are incubated for 1 hour at 37 °C in 5% CO2. Cells are then fixed with 3.7% formaldehyde for 10 minutes, washed with wash buffer (1% goat serum and 0.1% Tween 20 in PBS), then permeabilized with 0.5% Triton X in PBS for 15 minutes. After washing with wash buffer, cells are incubated with primary antibody (Upstate #06-507 anti-phospho-histone (Ser 10) antibody (pHH3) for 1 hour at 10ug/ml. After 2 washes with wash buffer, cells are incubated with secondary antibody (Molecular Probes #A11034 goat anti-rabbit Alexa-488 for 1 hour at 1ug/ml + Hoechst 33342 nuclear dye at 1ug/ml (Molecular Probes). Cells are washed 2 times with wash buffer, and buffer replaced with PBS. Plates are scanned on the Cellomics Array Scan (6 fields, ~2000 cells/well) and % of cells that are pHH3 positive were calculated using the Cellomics algorithm.

AuroraB = target: T2, AuroraB (Homo sapiens, UniProt Q96GD4); assay: AuroraB Homogeneous Time Resolved Fluorescent (HTRF) kinase assay; format: biochemical; conditions: average, read-out: AurB_ _IC50_IP (Avg)
T2 construct: 20 µL of AuroraB FL His; His
T2 sequence (Q96GD4 whole entry): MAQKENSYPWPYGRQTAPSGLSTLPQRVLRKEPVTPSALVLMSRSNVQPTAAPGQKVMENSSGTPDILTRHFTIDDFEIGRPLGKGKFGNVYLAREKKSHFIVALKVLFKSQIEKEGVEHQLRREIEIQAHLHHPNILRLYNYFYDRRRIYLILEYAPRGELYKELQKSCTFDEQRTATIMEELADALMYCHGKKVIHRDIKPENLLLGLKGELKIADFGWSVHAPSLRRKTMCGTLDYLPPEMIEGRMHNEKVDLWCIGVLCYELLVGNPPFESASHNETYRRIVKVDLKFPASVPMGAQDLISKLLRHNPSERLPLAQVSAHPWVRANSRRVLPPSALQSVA
In short: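 Full-length His-tagged AuroraB (400 pM) phosphorylates 0.1 µM biotinylated Histone H3 with 23 µM ATP (Km(app)) in HEPES pH 7.5 with Mg/Mn, about 90 min. EDTA-quenched; Eu-anti-phosphoHistoneH3 and SA-APC HTRF, 655/615 nm ratio as phosphorylation.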

[2] = given as numbers, unit inferred

Row | IC50 (AuroraA-TPX2; given as class symbols) [nM] | EC50 ([1]; given as class symbols) [nM] | IC50 (AuroraB; given as class symbols) [nM] | IC50 (AuroraA-TPX2; [2]) [nM] | EC50 [1, 2] [nM] | IC50 (AuroraB; [2]) [nM] | Compound
1 | ≤ 100 | 500 to 2500 | ≤ 100 | – | – | – | Nc1n[nH]cc1-c1cccnc1Oc1ccc(Nc2nnc(-c3cccc(CO)c3)c3ccccc23)cc1 [compound 305, (3-(4-((4-((3-(3-amino-1H-pyrazol-4-yl)-2-pyridinyl)oxy)phenyl)amino)-1-phthalazinyl)phenyl)methanol]
2 | ≤ 100 | 100 to 500 | ≤ 100 | – | – | – | Nc1n[nH]cc1-c1cccnc1Oc1ccc(Nc2nnc(-c3ccc(Cl)cc3)c3ccccc23)cc1 [compound 306, N-(4-((3-(3-amino-1H-pyrazol-4-yl)-2-pyridinyl)oxy)phenyl)-4-(4-chlorophenyl)-1-phthalazinamine]
3 | ≤ 100 | 100 to 500 | ≤ 100 | – | – | – | Cc1csc(-c2nnc(Nc3ccc(Oc4ncccc4-c4c[nH]nc4N)cc3)c3ccccc23)c1 [compound 307, N-(4-((3-(3-amino-1H-pyrazol-4-yl)-2-pyridinyl)oxy)phenyl)-4-(4-methyl-2-thienyl)-1-phthalazinamine]
4 | ≤ 100 | 500 to 2500 | ≤ 100 | – | – | – | Nc1n[nH]cc1-c1cccnc1Oc1ccc(Nc2nnc(-c3ccccc3)c3c2CCCC3)cc1 [compound 308, N-(4-((3-(3-amino-1H-pyrazol-4-yl)-2-pyridinyl)oxy)phenyl)-4-phenyl-5,6,7,8-tetrahydro-1-phthalazinamine]
5 | ≤ 100 | 500 to 2500 | ≤ 100 | – | – | – | Cc1csc(-c2nnc(Nc3ccc(Oc4ncccc4-c4c[nH]nc4N)cc3)c3ccccc23)n1 [compound 309, N-(4-((3-(3-amino-1H-pyrazol-4-yl)-2-pyridinyl)oxy)phenyl)-4-(4-methyl-1,3-thiazol-2-yl)-1-phthalazinamine]
6 | ≤ 100 | ≤ 100 | ≤ 100 | – | – | – | Cc1csc(-c2nnc(Nc3ccc(Oc4ncccc4-c4ccnc(N)n4)cc3)c3ccccc23)n1 [compound 330, N-(4-((3-(2-amino-4-pyrimidinyl)-2-pyridinyi)oxy)phenyl)-4-(4-methyl-1,3-thiazol-2-yl)-1-phthalazinamine]
7 | – | – | – | 5.2 | 3.3 | 1.6 | Cc1csc(-c2nnc(Nc3ccc(Oc4ncccc4-c4ccnc(N)n4)nc3)c3ccccc23)c1 [compound 332, N-(6-((3-(2-amino-4-pyrimidinyl)-2-pyridinyl)oxy)-3-pyridinyl)-4-(4-methyl-2-thienyl)-1-phthalazinamine]
8 | ≤ 100 | ≤ 100 | ≤ 100 | – | – | – | CN1CCN(CCCNc2nccc(-c3cccnc3Oc3ccc(Nc4nnc(-c5ccccc5)c5ccccc45)cc3)n2)CC1 [compound 333, N-(4-((3-(2-((3-(4-methyl-1-piperazinyl)propyl)amino)-4-pyrimidinyl)-2-pyridinyl)oxy)phenyl)-4-phenyl-1-phthalazinamine]
9 | 100 to 500 | 500 to 2500 | ≤ 100 | – | – | – | Cc1cc(N2CCCCC2)nnc1Nc1ccc(Oc2ncccc2-c2ccnc(N)n2)cc1 [compound 334, N-(4-((3-(2-amino-4-pyrimidinyl)-2-pyridinyl)oxy)phenyl)-4-methyl-6-(1-piperidinyl)-3-pyridazinamine]
10 | 500 to 2500 | 500 to 2500 | 100 to 500 | – | – | – | c1ccc(-c2nnc(Nc3ccc(Oc4ncccc4-c4ccnc(NCC5CCNCC5)n4)cc3)c3ccccc23)cc1 [compound 335, 4-phenyl-N-(4-((3-(2-((4-piperidinylmethyl)amino)-4-pyrimidinyl)-2-pyridinyl)oxy)phenyl)-1-phthalazinamine]
11 | 500 to 2500 | 500 to 2500 | 100 to 500 | – | – | – | CN(C)Cc1ccc(-c2nnc(Nc3ccc(Oc4ncccc4-c4ccnc(N)n4)cc3)c3ccccc23)cc1 [compound 336, N-(4-((3-(2-amino-4-pyrimidinyl)-2-pyridinyl)oxy)phenyl)-4-(4-((dimethylamino)methyl)phenyl)-1-phthalazinamine]
12 | ≤ 100 | 100 to 500 | ≤ 100 | – | – | – | OCC(O)CNc1nccc(-c2cccnc2Oc2ccc(Nc3nnc(-c4ccccc4)c4ccccc34)cc2)n1 (stereo not drawn) [compound 337, 3-((4-(2-((4-((4-phenyl-1-phthalazinyl)amino)phenyl)oxy)-3-pyridinyl)-2-pyrimidinyl)amino)-1,2-propanediol]
13 | ≤ 100 | ≤ 100 | ≤ 100 | – | – | – | CN(C)CCCCNc1nccc(-c2cccnc2Oc2ccc(Nc3nnc(-c4ccccc4)c4ccccc34)cc2)n1 [compound 338, N,N-dimethyl-N'-(4-(2-((4-((4-phenyl-1-phthalazinyl)amino)phenyl)oxy)-3-pyridinyl)-2-pyrimidinyl)-1,4-butanediamine]
14 | ≤ 100 | 100 to 500 | ≤ 100 | – | – | – | OCCCNc1nccc(-c2cccnc2Oc2ccc(Nc3nnc(-c4ccccc4)c4ccccc34)cc2)n1 [compound 339, 3-((4-(2-((4-((4-phenyl-1-phthalazinyl)amino)phenyl)oxy)-3-pyridinyl)-2-pyrimidinyl)amino)-1-propanol]
15 | ≤ 100 | 100 to 500 | ≤ 100 | – | – | – | c1ccc(-c2nnc(Nc3ccc(Oc4ncccc4-c4ccnc(NCCCN5CCNCC5)n4)cc3)c3ccccc23)cc1 [compound 340, 4-phenyl-N-(4-((3-(2-((3-(1-piperazinyl)propyl)amino)-4-pyrimidinyl)-2-pyridinyl)oxy)phenyl)-1-phthalazinamine]
16 | 100 to 500 | 100 to 500 | ≤ 100 | – | – | – | OCCN(CCO)CCCNc1nccc(-c2cccnc2Oc2ccc(Nc3nnc(-c4ccccc4)c4ccccc34)cc2)n1 [compound 341, 2,2'-((3-((4-(2-((4-((4-phenyl-1-phthalazinyl)amino)phenyl)oxy)-3-pyridinyl)-2-pyrimidinyl)amino)propyl)imino)diethanol]
17 | ≤ 100 | 100 to 500 | ≤ 100 | – | – | – | Nc1nccc(-c2cccnc2Oc2ccc(Nc3nnc(-c4cccc(CO)c4)c4ccccc34)cc2)n1 [compound 342, (3-(4-((4-((3-(2-amino-4-pyrimidinyl)-2-pyridinyl)oxy)phenyl)amino)-1-phthalazinyl)phenyl)methanol]
18 | ≤ 100 | ≤ 100 | ≤ 100 | – | – | – | Nc1nccc(-c2cccnc2Oc2ccc(Nc3nnc(-c4cccc(O)c4)c4ccccc34)cc2)n1 [compound 343, 3-(4-((4-((3-(2-amino-4-pyrimidinyl)-2-pyridinyl)oxy)phenyl)amino)-1-phthalazinyl)phenol]
19 | ≤ 100 | ≤ 100 | ≤ 100 | – | – | – | Nc1nccc(-c2cccnc2Oc2ccc(Nc3nnc(-c4cccc(CCCO)c4)c4ccccc34)cc2)n1 [compound 344, 3-(3-(4-((4-((3-(2-amino-4-pyrimidinyl)-2-pyridinyl)oxy)phenyl)amino)-1-phthalazinyl)phenyl)-1-propanol]
20 | ≤ 100 | 100 to 500 | ≤ 100 | – | – | – | Cc1csc(-c2nnc(Nc3ccc(Oc4ncccc4-c4ccnc(N)c4)cc3)c3ccccc23)n1 [compound 345, 2-((4-((4-(4-methyl-1,3-thiazol-2-yl)-1-phthalazinyl)amino)phenyl)oxy)-3,4'-bipyridin-2'-amine]
21 | ≤ 100 | 100 to 500 | ≤ 100 | – | – | – | CC(O)c1cccc(-c2nnc(Nc3ccc(Oc4ncccc4-c4ccnc(N)n4)cc3)c3ccccc23)c1 (stereo not drawn) [compound 346, 1-(3-(4-((4-((3-(2-amino-4-pyrimidinyl)-2-pyridinyl)oxy)phenyl)amino)-1-phthalazinyl)phenyl)ethanol]
